Experimental findings from US9050341B2, “Methods of treating drug resistant and other tumors by administering 6,7-dialkoxy quinazoline derivatives” (NATCO PHARMA LIMITED, priority 2009, dated 2015) are described below.

What all share (experiment): KinomeScan kinase profiling
What all share (type): binding

For one experiment, the target named is T1, RET (M918T) (Homo sapiens, UniProt P07949, M918T).
T1 construct: host or cells: E. coli host derived from BL21, T7 phage lysate
A digest of the protocol:
(§1)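 Kinases were expressed as T7 phage fusions in a BL21-derived E. coli host and the cleared lysates were used. Ligand beads were blocked with biotin and buffer (1% BSA, 0.05% Tween 20, 1 mM DTT). Compounds came from 40× DMSO stocks, and phage in the eluates was titred by qPCR.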

The target of a further experiment is T2, AURKC (Homo sapiens, UniProt Q9UQB9).
T2 construct: purchased Ambit Biosciences Corp (KinomeScan); host or cells: E. coli host derived from the BL21 strain, T7 phage
A digest of the protocol:
as §1

Another experiment concerns the target T3, ERK8 (Homo sapiens, UniProt Q8TD08).
T3 construct: host or cells: E. coli host derived from BL21, T7 phage lysate
A digest of the protocol:
as §1

The target in a further experiment is T4, IRAK3 (Homo sapiens, UniProt Q9Y616).
T4 construct: host or cells: T7 phage in E. coli host derived from BL21
A digest of the protocol:
as §1

For a further experiment, the target named is T5, DRAK1 (Homo sapiens, UniProt Q9UEE5).
T5 construct: purchased Ambit Biosciences Corp (KinomeScan); host or cells: T7 phage in E. coli host derived from BL21
Summed up: as §1

The next experiment deals with T6, p38-delta (Homo sapiens, UniProt O15264).
T6 construct: host or cells: E. coli host derived from the BL21 strain, infected with T7 phage
A digest of the protocol:
as §1

Experiment [1] addresses T7, JAK1 (JH2domain-pseudokinase) (Homo sapiens, UniProt P23458).
T7 construct: JAK1 (JH2domain-pseudokinase); host or cells: T7 phage in E. coli host derived from BL21
A digest of the protocol:
as §1

The target in another experiment is T8, PAK4 (Homo sapiens, UniProt O96013).
T8 construct: host or cells: E. coli host derived from the BL21 strain, infected with T7 phage
Summed up:
as §1

For the next experiment, the target named is T9, PIK3C2B (Homo sapiens, UniProt O00750).
T9 construct: host or cells: E. coli host derived from the BL21 strain, infected with T7 phage
A digest of the protocol: as §1

A further experiment has as its target T10, TNK2 (Homo sapiens, UniProt Q07912).
T10 construct: purchased Ambit Biosciences Corp (KinomeScan); host or cells: E. coli host derived from the BL21 strain (T7 phage lysate)
A digest of the protocol: as §1

The next experiment has as its target T11, TYRO3 (Homo sapiens, UniProt Q06418).
T11 construct: purchased Ambit Biosciences Corp (KinomeScan); host or cells: E. coli host derived from the BL21 strain (T7 phage lysate)
A digest of the protocol:
as §1

A further experiment concerns the target T12, SIK2 (Homo sapiens, UniProt Q9H0K1).
T12 construct: host or cells: E. coli host derived from the BL21 strain, T7 phage lysate
A digest of the protocol:
as §1

The next experiment deals with T13, MINK (Homo sapiens, UniProt Q8N4C8).
T13 construct: host or cells: E. coli derived from BL21, infected with T7 phage
Summed up:
as §1

The next experiment addresses T14, KIT (Homo sapiens, UniProt P10721).
T14 construct: host or cells: T7 phage in E. coli host derived from BL21
Summed up: as §1

For another experiment, the target named is T15, PIK3CA (E545K) (Homo sapiens, UniProt P42336, E545K).
T15 construct: host or cells: E. coli host derived from the BL21 strain, infected with T7 phage
Summed up: as §1

The next experiment has as its target T16, PRKCE (Homo sapiens, UniProt Q02156).
T16 construct: purchased Ambit Biosciences Corp (KinomeScan); host or cells: E. coli host derived from BL21, infected with T7 phage
Summed up: as §1

Another experiment has as its target T17, ABL1 (Q252H) (Homo sapiens, UniProt P00519, Q252H).
T17 construct: host or cells: E. coli host derived from BL21 (T7 phage lysate)
Summed up:
as §1

For another experiment, the target named is T18, HIPK1 (Homo sapiens, UniProt Q86Z02).
T18 construct: host or cells: E. coli host derived from BL21, infected with T7 phage
Summed up: as §1

The next experiment addresses T19, YANK3 (Homo sapiens, UniProt Q86UX6).
T19 construct: purchased Ambit Biosciences Corp (KinomeScan); host or cells: E. coli host derived from the BL21 strain (T7 phage lysate)
A digest of the protocol:
as §1

Another experiment deals with T20, CIT (Homo sapiens, UniProt O14578).
T20 construct: host or cells: T7 phage in E. coli (BL21-derived)
A digest of the protocol: as §1

A further experiment addresses T21, SIK (Homo sapiens, UniProt P57059).
T21 construct: host or cells: E. coli host derived from the BL21 strain, T7 phage lysate
Summed up: as §1

For a further experiment, the target named is T22, PDGFRA (Homo sapiens, UniProt P16234).
T22 construct: host or cells: E. coli host derived from the BL21 strain, infected with T7 phage
A digest of the protocol:
as §1

T3 sequence (Q8TD08 whole entry): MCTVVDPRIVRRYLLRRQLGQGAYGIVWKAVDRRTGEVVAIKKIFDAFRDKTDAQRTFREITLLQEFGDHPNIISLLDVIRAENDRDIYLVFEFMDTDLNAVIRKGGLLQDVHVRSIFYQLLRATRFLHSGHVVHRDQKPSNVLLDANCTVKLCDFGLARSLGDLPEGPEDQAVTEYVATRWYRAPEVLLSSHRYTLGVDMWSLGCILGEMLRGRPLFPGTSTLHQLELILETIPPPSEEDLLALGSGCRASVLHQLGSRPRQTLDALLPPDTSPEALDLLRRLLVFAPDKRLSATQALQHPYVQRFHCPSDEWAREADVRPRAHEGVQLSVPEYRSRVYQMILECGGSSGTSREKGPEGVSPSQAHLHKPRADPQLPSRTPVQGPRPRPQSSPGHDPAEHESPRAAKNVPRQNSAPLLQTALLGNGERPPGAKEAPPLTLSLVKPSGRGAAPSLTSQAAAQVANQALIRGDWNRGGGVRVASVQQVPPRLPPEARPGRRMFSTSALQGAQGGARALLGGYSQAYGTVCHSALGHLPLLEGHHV
T18 sequence (Q86Z02 whole entry): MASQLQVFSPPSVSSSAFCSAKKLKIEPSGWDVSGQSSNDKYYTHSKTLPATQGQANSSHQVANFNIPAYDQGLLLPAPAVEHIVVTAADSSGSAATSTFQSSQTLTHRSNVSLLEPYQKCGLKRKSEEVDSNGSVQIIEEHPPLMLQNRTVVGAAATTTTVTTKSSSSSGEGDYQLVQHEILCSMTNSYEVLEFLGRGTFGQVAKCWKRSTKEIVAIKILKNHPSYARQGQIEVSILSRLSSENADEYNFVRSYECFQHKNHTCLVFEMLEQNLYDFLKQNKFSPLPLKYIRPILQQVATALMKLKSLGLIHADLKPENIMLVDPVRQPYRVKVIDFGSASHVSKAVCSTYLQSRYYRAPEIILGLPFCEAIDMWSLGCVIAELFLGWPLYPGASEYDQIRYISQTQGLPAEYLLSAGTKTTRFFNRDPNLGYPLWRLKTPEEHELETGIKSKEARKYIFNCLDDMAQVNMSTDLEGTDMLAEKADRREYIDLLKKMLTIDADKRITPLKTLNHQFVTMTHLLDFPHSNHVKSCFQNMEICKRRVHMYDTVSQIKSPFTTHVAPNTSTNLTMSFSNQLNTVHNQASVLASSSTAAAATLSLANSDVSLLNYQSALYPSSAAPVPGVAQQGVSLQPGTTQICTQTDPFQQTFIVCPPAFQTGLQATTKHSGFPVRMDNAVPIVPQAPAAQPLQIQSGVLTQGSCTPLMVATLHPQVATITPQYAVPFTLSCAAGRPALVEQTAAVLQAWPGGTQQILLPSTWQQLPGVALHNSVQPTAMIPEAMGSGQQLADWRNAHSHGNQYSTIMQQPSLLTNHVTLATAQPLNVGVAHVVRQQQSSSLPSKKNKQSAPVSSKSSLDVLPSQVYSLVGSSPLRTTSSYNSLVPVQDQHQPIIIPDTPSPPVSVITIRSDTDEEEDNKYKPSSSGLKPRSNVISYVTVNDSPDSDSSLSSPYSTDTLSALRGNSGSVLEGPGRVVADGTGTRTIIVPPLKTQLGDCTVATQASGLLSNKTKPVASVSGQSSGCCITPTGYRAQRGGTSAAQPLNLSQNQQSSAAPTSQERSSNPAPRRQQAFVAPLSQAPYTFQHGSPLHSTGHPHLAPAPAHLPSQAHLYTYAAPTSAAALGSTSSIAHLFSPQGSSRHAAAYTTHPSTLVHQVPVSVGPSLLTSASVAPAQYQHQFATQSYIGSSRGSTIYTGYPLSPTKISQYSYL
T14 sequence (P10721 26-976): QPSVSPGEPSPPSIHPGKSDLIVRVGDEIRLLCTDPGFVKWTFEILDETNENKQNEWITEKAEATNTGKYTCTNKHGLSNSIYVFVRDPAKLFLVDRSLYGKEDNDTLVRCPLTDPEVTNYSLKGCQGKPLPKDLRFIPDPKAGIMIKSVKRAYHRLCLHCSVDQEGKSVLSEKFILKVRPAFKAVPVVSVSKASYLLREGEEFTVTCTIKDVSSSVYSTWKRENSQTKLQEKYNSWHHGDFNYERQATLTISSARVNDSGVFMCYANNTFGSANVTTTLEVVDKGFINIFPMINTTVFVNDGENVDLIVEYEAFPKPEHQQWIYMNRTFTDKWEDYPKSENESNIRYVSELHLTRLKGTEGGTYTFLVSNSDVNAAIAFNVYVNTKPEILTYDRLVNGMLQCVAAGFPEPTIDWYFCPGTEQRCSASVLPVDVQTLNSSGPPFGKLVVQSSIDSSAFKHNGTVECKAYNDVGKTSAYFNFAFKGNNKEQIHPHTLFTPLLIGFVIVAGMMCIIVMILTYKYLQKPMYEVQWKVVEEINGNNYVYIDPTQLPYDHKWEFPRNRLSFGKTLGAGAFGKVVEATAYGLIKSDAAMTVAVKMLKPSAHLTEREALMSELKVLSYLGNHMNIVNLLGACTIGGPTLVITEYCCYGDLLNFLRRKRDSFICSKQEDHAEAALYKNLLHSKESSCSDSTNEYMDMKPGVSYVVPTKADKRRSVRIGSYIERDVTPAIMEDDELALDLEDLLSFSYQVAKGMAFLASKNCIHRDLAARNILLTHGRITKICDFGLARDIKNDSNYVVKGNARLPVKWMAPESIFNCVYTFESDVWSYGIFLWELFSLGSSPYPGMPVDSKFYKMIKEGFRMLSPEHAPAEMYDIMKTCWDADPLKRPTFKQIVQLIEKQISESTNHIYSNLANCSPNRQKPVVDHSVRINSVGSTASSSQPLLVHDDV
T6 sequence (O15264 whole entry): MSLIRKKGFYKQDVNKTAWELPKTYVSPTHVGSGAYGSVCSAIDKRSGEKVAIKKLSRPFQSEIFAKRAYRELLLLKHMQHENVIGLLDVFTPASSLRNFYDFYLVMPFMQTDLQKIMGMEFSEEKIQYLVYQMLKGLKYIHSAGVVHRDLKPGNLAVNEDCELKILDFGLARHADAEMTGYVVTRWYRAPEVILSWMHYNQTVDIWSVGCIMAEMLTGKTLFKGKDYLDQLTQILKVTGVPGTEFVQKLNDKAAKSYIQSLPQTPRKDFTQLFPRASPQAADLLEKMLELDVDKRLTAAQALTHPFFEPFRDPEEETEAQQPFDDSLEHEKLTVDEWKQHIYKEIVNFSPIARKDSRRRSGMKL
T16 sequence (Q02156 whole entry): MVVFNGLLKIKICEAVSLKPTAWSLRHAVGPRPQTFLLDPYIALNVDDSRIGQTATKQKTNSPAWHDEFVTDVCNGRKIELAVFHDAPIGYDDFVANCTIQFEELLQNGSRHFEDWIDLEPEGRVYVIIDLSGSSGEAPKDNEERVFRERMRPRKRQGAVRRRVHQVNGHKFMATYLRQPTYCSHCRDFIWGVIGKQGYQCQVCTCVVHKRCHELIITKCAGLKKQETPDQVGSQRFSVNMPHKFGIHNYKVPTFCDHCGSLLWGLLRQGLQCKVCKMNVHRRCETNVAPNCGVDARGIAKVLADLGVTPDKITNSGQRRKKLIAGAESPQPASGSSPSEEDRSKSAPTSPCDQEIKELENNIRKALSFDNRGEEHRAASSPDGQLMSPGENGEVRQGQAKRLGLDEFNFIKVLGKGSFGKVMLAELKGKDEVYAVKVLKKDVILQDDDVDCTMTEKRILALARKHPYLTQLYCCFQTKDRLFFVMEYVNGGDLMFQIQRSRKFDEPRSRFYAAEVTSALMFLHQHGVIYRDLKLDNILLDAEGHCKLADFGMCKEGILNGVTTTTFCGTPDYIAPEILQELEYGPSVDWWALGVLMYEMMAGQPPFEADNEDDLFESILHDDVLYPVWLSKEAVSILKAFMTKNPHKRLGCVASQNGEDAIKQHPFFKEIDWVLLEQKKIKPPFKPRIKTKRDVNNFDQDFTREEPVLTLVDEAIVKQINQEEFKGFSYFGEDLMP
T2 sequence (Q9UQB9 whole entry): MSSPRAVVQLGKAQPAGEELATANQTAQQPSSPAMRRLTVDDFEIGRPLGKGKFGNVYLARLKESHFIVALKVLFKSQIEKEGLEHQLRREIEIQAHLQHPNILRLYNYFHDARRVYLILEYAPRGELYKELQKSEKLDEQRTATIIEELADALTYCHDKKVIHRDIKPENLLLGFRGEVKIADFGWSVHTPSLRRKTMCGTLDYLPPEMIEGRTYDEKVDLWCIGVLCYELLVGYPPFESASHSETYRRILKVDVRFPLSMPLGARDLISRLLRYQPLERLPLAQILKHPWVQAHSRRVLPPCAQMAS
T12 sequence (Q9H0K1 whole entry): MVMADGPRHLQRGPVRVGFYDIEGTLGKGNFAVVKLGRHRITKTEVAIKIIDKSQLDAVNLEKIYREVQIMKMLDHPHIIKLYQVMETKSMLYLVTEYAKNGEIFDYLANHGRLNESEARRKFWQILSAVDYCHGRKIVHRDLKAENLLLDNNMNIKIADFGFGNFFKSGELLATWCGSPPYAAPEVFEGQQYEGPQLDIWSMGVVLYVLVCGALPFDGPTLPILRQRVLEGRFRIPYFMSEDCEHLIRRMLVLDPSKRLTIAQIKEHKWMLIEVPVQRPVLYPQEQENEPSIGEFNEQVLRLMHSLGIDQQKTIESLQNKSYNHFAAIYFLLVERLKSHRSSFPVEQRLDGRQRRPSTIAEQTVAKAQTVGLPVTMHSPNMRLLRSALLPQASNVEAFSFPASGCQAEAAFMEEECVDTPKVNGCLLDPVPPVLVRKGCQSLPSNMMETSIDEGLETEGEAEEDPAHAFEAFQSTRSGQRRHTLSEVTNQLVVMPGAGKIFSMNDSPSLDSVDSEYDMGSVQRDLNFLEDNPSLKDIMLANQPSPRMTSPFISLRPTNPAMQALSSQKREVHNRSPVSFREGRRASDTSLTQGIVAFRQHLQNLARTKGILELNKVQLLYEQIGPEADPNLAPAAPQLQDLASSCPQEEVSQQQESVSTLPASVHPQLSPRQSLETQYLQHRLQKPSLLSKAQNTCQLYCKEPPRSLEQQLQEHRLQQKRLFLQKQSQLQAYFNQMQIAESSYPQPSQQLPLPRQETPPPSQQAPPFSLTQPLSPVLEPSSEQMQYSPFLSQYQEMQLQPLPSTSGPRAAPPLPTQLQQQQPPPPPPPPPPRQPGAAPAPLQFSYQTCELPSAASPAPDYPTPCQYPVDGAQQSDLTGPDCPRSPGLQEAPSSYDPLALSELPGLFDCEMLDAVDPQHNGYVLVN

Take `C#Cc1cccc(Nc2ncnc3cc(OC)c(OCCCN4CCOCC4)cc23)c1` [NRC-2694, N-(3-ethylnylphenyl)-7-methoxy-6-[3-(4-morpholinyl)propoxy]-4-quinazolinamine]: the “% Ctrl @ 10000 nM” value on RET (M918T) was found to be 37 % Ctrl; at AURKC, 47 % Ctrl; at ERK8, 62 % Ctrl; at IRAK3, 25 % Ctrl; at DRAK1 it was 51 % Ctrl; at p38-delta, 100 % Ctrl. Moreover, the “% Ctrl @ 10000 nM” value is 81 % Ctrl in experiment [1]; 80 % Ctrl on PAK4; 93 % Ctrl at PIK3C2B; 37 % Ctrl at TNK2; 42 % Ctrl at TYRO3; 21 % Ctrl at SIK2. Moreover, the “% Ctrl @ 10000 nM” value on MINK turned out to be 16 % Ctrl; on KIT, 26 % Ctrl; at PIK3CA (E545K), 100 % Ctrl; at PRKCE, 65 % Ctrl; on ABL1 (Q252H) it was 15 % Ctrl; at HIPK1, 70 % Ctrl. In addition, the “% Ctrl @ 10000 nM” value on YANK3 stood at 100 % Ctrl; at CIT it was 5.0 % Ctrl; at SIK it was 53 % Ctrl; on PDGFRA, 50 % Ctrl.
